According to US20260193268A1, “TRICYCLIC PI3Ka INHIBITOR, PREPARATION METHOD THEREFOR, AND PHARMACEUTICAL USE THEREOF” (WIGEN BIOMEDICINE TECHNOLOGY (SHANGHAI) CO., LTD., priority 2022, published 2026):
pIC50: −log10 of the molar value. Where two headings read alike, the source gives them in different places.

Experiments:
[1] = tested on: HCC1954 cells (with PI3Kα H1047R mutation); assay: In vitro inhibition of HCC1954 cell proliferation (CellTiter-Lumi); type: cell-based; conditions: HCC1954 cells, 144 h, CellTiter-Lumi, numeric values, read-out: Inhibitory activity against HCC1954 cells (IC50)
Protocol: Assay for In Vitro Inhibition of HCC1954 Cell Proliferation by Compounds of the Present Disclosure
The growth of the cells was evaluated, and the IC50 for the inhibition of cell growth by the compounds was calculated.

[2] = tested on: MCF-7 cells (with PI3Kα E545K mutation); assay: In vitro inhibition of MCF-7 cell proliferation (CellTiter-Lumi); type: cell-based; conditions: numeric values, read-out: Inhibitory activity against MCF-7 cells (IC50)
Protocol: Biological Example 3. Assay for In Vitro Inhibition of MCF-7 Cell Proliferation by Compounds of the Present Disclosure
MCF-7 cells (with PI3Kα E545K mutation) were seeded into a 384-well plate (Fisher 142762) at 2000 cells per well. The next day, serially diluted compounds were added, and 144 h after the addition, CellTiter-Lumi (Beyotime C0068XL) was added to measure the ATP content in the cells. The growth of the cells was evaluated, and the IC50 for the inhibition of cell growth by the compounds was calculated.

| SMILES | pIC50 ([1]; Homo sapiens, HCC1954, 144 h) | pIC50 ([2]; Homo sapiens, MCF7, 144 h) | pIC50 [1] | pIC50 ([2]; 144 h) |
| --- | --- | --- | --- | --- |
| Cc1nc(NC(=O)N2CCC[C@H]2C(N)=O)sc1-c1ccnc(C(C)(C)C(F)(F)F)c1 [Alpelisib, reference compound] | 5.79 | 6.67 |  |  |
| CC(C)=CC(=O)CCC(=O)N1CCN(Cc2cc3nc(-c4cccc5[nH]ncc45)nc(N4CCOCC4)c3s2)CC1 [CNX1351] |  |  | 5.92 | 6.54 |
| C=CC(=O)N1CCC(C(=O)NCC(=O)N2CCN(c3ccc4c(c3)-c3nc(N5C(=O)OC[C@H]5C(F)F)cn3CCO4)CC2)CC1 [Compound 6] | 6.18 | 7.00 |  |  |
| C=CC(=O)N1CCC(CCC(=O)N2CCN(c3ccc4c(c3)-c3nc(N5C(=O)OC[C@H]5C(F)F)cn3CCO4)CC2)CC1 [Compound 7] | 6.03 | 6.97 |  |  |
| C=CC(=O)N1CCC(N2CCC(CN3CCN(c4ccc5c(c4)-c4nc(N6C(=O)OC[C@H]6C(F)F)cn4CCO5)CC3)CC2)CC1 [Compound 8] | < 6.00 | 7.20 |  |  |
| C=CC(=O)N1CCC(N2CCC(N3CCN(c4ccc5c(c4)-c4nc(N6C(=O)OC[C@H]6C(F)F)cn4CCO5)CC3)CC2)CC1 [Compound 10] | < 6.00 | 6.84 |  |  |
| C=CC(=O)N1CCN(CCCC(=O)N2CCN(c3ccc4c(c3)-c3nc(N5C(=O)OC[C@H]5C(F)F)cn3CCO4)CC2)CC1 [Compound 15] | 6.89 | 7.85 |  |  |
| C=CC(=O)Nc1ccc(CCN2CCN(c3ccc4c(c3)-c3nc(N5C(=O)OC[C@H]5C(F)F)cn3CCO4)CC2)cc1 [Compound 16] | 7.20 | 8.15 |  |  |
| C=CC(=O)N1CCC(CN2CC3(CCN(c4ccc5c(c4)-c4nc(N6C(=O)OC[C@H]6C(F)F)cn4CCO5)CC3)C2)CC1 [Compound 24] | < 6.00 | 5.95 |  |  |
| C=CC(=O)Nc1ccc(N2CCC(N3CCN(c4ccc5c(c4)-c4nc(N6C(=O)OC[C@H]6C(F)F)cn4CCO5)CC3)C2)cc1 (stereo partly shown) [Compound 28] | 6.74 | 7.74 |  |  |
| C=CC(=O)N1CC[C@@H](CN2CC(CN3CCN(c4ccc5c(c4)-c4nc(N6C(=O)OC[C@H]6C(F)F)cn4CCO5)CC3)C2)C1 [Compound 37] | 6.12 | 7.12 |  |  |
| C=CC(=O)Nc1ccc(CN2CC(N3CCN(c4ccc5c(c4)-c4nc(N6C(=O)OC[C@H]6C(F)F)cn4CCO5)CC3)C2)cc1 [Compound 39] | 7.17 | 7.96 |  |  |
| C=CC(=O)Nc1ccc(CN2C[C@@H]3CN(c4ccc5c(c4)-c4nc(N6C(=O)OC[C@H]6C(F)F)cn4CCO5)C[C@@H]3C2)cc1 [Compound 41] | 6.72 | 7.40 |  |  |
| C=CC(=O)Nc1ccc(CN2CC3(CCN(c4ccc5c(c4)-c4nc(N6C(=O)OC[C@H]6C(F)F)cn4CCO5)CC3)C2)cc1 [Compound 43] | 6.74 | 7.72 |  |  |
| C=CC(=O)N1CCC(N2CC[C@H](CN3CCN(c4ccc5c(c4)-c4nc(N6C(=O)OC[C@H]6C(F)F)cn4CCO5)CC3)C2)CC1 [Compound 59] | 6.06 | 6.71 |  |  |
| C=CC(=O)N1CC(CN2CCC(N3CCN(c4ccc5c(c4)-c4nc(N6C(=O)OC[C@H]6C(F)F)cn4CCO5)CC3)CC2)C1 [Compound 64] | 6.50 | 7.48 |  |  |
| C=CC(=O)N1CC(N2CC[C@@H](CN3CCN(c4ccc5c(c4)-c4nc(N6C(=O)OC[C@H]6C(F)F)cn4CCO5)CC3)C2)C1 [Compound 87] | 6.50 | 7.43 |  |  |
| C=CC(=O)N1CCC(N2CCC(N3CCN(c4ccc5c(c4)-c4nc(N6C(=O)OC[C@H]6C(F)F)cn4CCO5)CC3)C2)CC1 (stereo partly shown) [Compound 89] | 6.64 | 7.39 |  |  |
| C=CC(=O)N1CC(N2CCC(N3CCN(c4ccc5c(c4)-c4nc(N6C(=O)OC[C@H]6C(F)F)cn4CCO5)CC3)C2)C1 (stereo partly shown) [Compound 90] | 6.65 | 7.92 |  |  |
| C=CC(=O)N1CC(CN2CC(N3CCN(c4ccc5c(c4)-c4nc(N6C(=O)OC[C@H]6C(F)F)cn4CCO5)CC3)C2)C1 [Compound 91] | 6.81 | 7.96 |  |  |
| C=CC(=O)Nc1ccc(N2CC3(CCN(c4ccc5c(c4)-c4nc(N6C(=O)OC[C@H]6C(F)F)cn4CCO5)C3)C2)cc1 [Compound 93] | 6.26 | 7.12 |  |  |
| C=CC(=O)Nc1ccc(N2CCC3(CCN(c4ccc5c(c4)-c4nc(N6C(=O)OC[C@H]6C(F)F)cn4CCO5)CC3)C2)cc1 [Compound 94] | 6.52 | 7.12 |  |  |
| C=CC(=O)Nc1ccc(N2CC(N3CCN(c4cc5c(cc4OC)OCCn4cc(N6C(=O)OC[C@H]6C(F)F)nc4-5)CC3)C2)cc1 [Compound 98] | 7.23 | 8.17 |  |  |

The next lines start with results.

| pIC50 ([1]; Homo sapiens, HCC1954, 144 h) | pIC50 ([2]; Homo sapiens, MCF7, 144 h) | SMILES | pIC50 [1] | pIC50 ([2]; 144 h) |
| --- | --- | --- | --- | --- |
| 7.12 | 7.89 | C=CC(=O)Nc1ccc(N2CCC(N3CCN(c4ccc5c(c4)-c4nc(N6C(=O)OC[C@H]6C(F)F)cn4CCO5)CC3)C2)cc1 (single isomer, unassigned) [Compound 29] |  |  |
| 6.55 | 7.21 | C=CC(=O)N1CC[C@H](C(=O)NCC(=O)N2CCN(c3ccc4c(c3)-c3nc(N5C(=O)OC[C@H]5C(F)F)cn3CCO4)CC2)C1 [Compound 3] |  |  |
| < 6.00 | 7.12 | C=CC(=O)N1CCC(CN2CCC(N3CCN(c4ccc5c(c4)-c4nc(N6C(=O)OC[C@H]6C(F)F)cn4CCO5)CC3)CC2)CC1 [Compound 9] |  |  |
| 6.53 | 7.24 | C=CC(=O)Nc1ccc(CCC(=O)N2CCN(c3ccc4c(c3)-c3nc(N5C(=O)OC[C@H]5C(F)F)cn3CCO4)CC2)cc1 [Compound 11] |  |  |
| 6.40 | 7.31 | C=CC(=O)Nc1ccc(N2CCC(CN3CCN(c4ccc5c(c4)-c4nc(N6C(=O)OC[C@H]6C(F)F)cn4CCO5)CC3)CC2)cc1 [Compound 12] |  |  |
| 6.06 | 7.40 | C=CC(=O)N1CCN(CCC(=O)N2CCN(c3ccc4c(c3)-c3nc(N5C(=O)OC[C@H]5C(F)F)cn3CCO4)CC2)CC1 [Compound 13] |  |  |
| 7.17 | 7.60 | C=CC(=O)Nc1ccc(N2CC3(CCN(c4ccc5c(c4)-c4nc(N6C(=O)OC[C@H]6C(F)F)cn4CCO5)CC3)C2)cc1 [Compound 18] |  |  |
| < 6.00 | 6.66 | C=CC(=O)N1CCC(CCN2CC3(C2)CN(c2ccc4c(c2)-c2nc(N5C(=O)OC[C@H]5C(F)F)cn2CCO4)C3)CC1 [Compound 19] |  |  |
| 6.36 | 7.16 | C=CC(=O)Nc1ccc(N2CC[C@H](CN3CCN(c4ccc5c(c4)-c4nc(N6C(=O)OC[C@H]6C(F)F)cn4CCO5)CC3)C2)cc1 [Compound 20] |  |  |
| 6.60 | 7.64 | C=CC(=O)N1CC[C@@H](C(=O)N2CC3(CCN(c4ccc5c(c4)-c4nc(N6C(=O)OC[C@H]6C(F)F)cn4CCO5)CC3)C2)C1 [Compound 21] |  |  |
| < 6.00 | 6.84 | C=CC(=O)N1CC[C@H](CN2CC3(CCN(c4ccc5c(c4)-c4nc(N6C(=O)OC[C@H]6C(F)F)cn4CCO5)CC3)C2)C1 [Compound 22] |  |  |
| < 6.00 | 6.73 | C=CC(=O)N1CC[C@@H](CN2CC3(CCN(c4ccc5c(c4)-c4nc(N6C(=O)OC[C@H]6C(F)F)cn4CCO5)CC3)C2)C1 [Compound 23] |  |  |
| < 6.00 | 6.41 | C=CC(=O)Nc1ccc(N2CC(CN3CC4(C3)CN(c3ccc5c(c3)-c3nc(N6C(=O)OC[C@H]6C(F)F)cn3CCO5)C4)C2)cc1 [Compound 25] |  |  |
| 6.61 | 7.08 | C=CC(=O)N1CCN(CCCCN2CCN(c3ccc4c(c3)-c3nc(N5C(=O)OC[C@H]5C(F)F)cn3CCO4)CC2)CC1 [Compound 26] |  |  |
| 6.79 | 7.47 | C=CC(=O)Nc1ccc(CN2CC3(C2)CN(c2ccc4c(c2)-c2nc(N5C(=O)OC[C@H]5C(F)F)cn2CCO4)C3)cc1 [Compound 40] |  |  |
| 6.19 | 6.82 | C=CC(=O)Nc1ccc(CN2CCN(c3ccc4c(c3)-c3nc(N5C(=O)OC[C@H]5C(F)F)cn3CCO4)CC2)cc1 [Compound 44] |  |  |
| < 6.00 | 6.61 | C=C(C)C(=O)Nc1ccc(N2CC(CN3CCN(c4ccc5c(c4)-c4nc(N6C(=O)OC[C@H]6C(F)F)cn4CCO5)CC3)C2)cc1 [Compound 45] |  |  |
| 6.51 | 7.13 | C=C(F)C(=O)Nc1ccc(N2CC(CN3CCN(c4ccc5c(c4)-c4nc(N6C(=O)OC[C@H]6C(F)F)cn4CCO5)CC3)C2)cc1 [Compound 46] |  |  |
| 6.76 | 7.89 | C=CC(=O)N1CC(N2CC(CN3CCN(c4ccc5c(c4)-c4nc(N6C(=O)OC[C@H]6C(F)F)cn4CCO5)CC3)C2)C1 [Compound 60] |  |  |
| 6.52 | 7.06 | C=CC(=O)Nc1ccc(N2CC[C@@H](CN3CCN(c4ccc5c(c4)-c4nc(N6C(=O)OC[C@H]6C(F)F)cn4CCO5)CC3)C2)cc1 [Compound 85] |  |  |
| 6.90 | 7.77 | C=CC(=O)N1CC(C(=O)N2CC3(CCN(c4ccc5c(c4)-c4nc(N6C(=O)OC[C@H]6C(F)F)cn4CCO5)CC3)C2)C1 [Compound 86] |  |  |
| 6.67 | 7.49 | C=CC(=O)N1CC(N2CCC(CN3CC=C(c4ccc5c(c4)-c4nc(N6C(=O)OC[C@H]6C(F)F)cn4CCO5)CC3)CC2)C1 [Compound 88] |  |  |
| 6.70 | 7.70 | C=CC(=O)N1CC(N2CC[C@H](CN3CCN(c4ccc5c(c4)-c4nc(N6C(=O)OC[C@H]6C(F)F)cn4CCO5)CC3)C2)C1 [Compound 92] |  |  |
| 7.28 | 7.96 | C=C(F)C(=O)Nc1ccc(N2CC(N3CCN(c4ccc5c(c4)-c4nc(N6C(=O)OC[C@H]6C(F)F)cn4CCO5)CC3)C2)cc1 [Compound 99] |  |  |
